What was measured:
[1] = test system: antinociceptive activity of oxotremorine; assay: Antagonism of antinociceptive activity of oxotremorine, hot plate (Table III); format: in vivo, mice
Description: The antinociceptive activity of oxotremorine [Leslie, J. Pharm. Pharmae., Vol. 2 (1969), p. 248-50] was determined on mice using the hot plate method of Eddy et al [J. Pharmacol. Vol. 107 (1953), p. 385] in the presence and absence of the test product presumed to be antagonistic. The product of Example 1 was administered subcutaneously in aqueous solution at doses of 50 and 100 mg/kg to groups of 10 mice and the products of Examples 2 to 5 were subcutaneously administered in sesame oil solution at doses of 200 and 400 mg/kg to groups of 10 mice. The mice then received a single intraperitoneal injection of 0.5 mg/kg of oxotremorine either 4 hours, 1 day, 2, 3, 4 or 7 days after the test product administration. For each time considerated, the mice were placed on the hot plate one half hour after the oxotremorine administration and the time for the appearance of nociceptive refluxes consistituted by simultaneous licking of the front paws was noted. The maximum time of staying on the hot plate was fixed at 45 seconds and the percentage of animals with a reaction time (RT) less than 40 seconds in spite of oxotremorine administration was determined.

[2] = test system: trembling and peripherical cholinergic manifestations provoked by tremorine; assay: Antitremorine activity as a function of time (Table I); format: in vivo, mice; conditions: for % inhibition of reactions: L (lacrymation) / % inhibition of reactions: S (salivation) / % inhibition of reactions: T (trembling): 200 mg/kg s.c. sesame oil
Description: The antagonism of the test compounds to the trembling and peripherical cholinergic manifestations provoked by tremorine [Everett et al, Science, Vol. 124 (1956), p. 79] was studied on mice.
The products of Examples 2 and 3 were administered subcutaneously in sesame oil solution at doses of 200 and 400 mg/kg at a volume of 25 ml/kg to groups of 10 mice. The mice receied intraperitoneal injections of 20 mg/kg of tremorine either for 4 hours, one day, 2, 3 or 4 days after injection of the test product. […] The reactions (T-trembling; S-salivation; L-lacrymation) were noted 10, 20, 30 and 60 minutes after the tremorine injection and the percent of inhibition of the different reactions at the height of the effect after injection of tremorine were noted as a function of time.

[3] = 200 mg/kg s.c. sesame oil, after 4 h
[4] = 200 mg/kg s.c. sesame oil, after 1 d
[5] = 200 mg/kg s.c. sesame oil, after 2 d
[6] = 200 mg/kg s.c. sesame oil, after 3 d
[7] = 200 mg/kg s.c. sesame oil, after 4 d
[8] = 200 mg/kg s.c. sesame oil, after 7 d
[9] = 400 mg/kg s.c. sesame oil, after 4 h
[10] = 400 mg/kg s.c. sesame oil, after 1 d
[11] = 400 mg/kg s.c. sesame oil, after 2 d
[12] = 400 mg/kg s.c. sesame oil, after 3 d
[13] = 400 mg/kg s.c. sesame oil, after 4 d
[14] = 400 mg/kg s.c. sesame oil, after 7 d

SMILES | % of animals with a RT less than 40 seconds [1, 3] | % of animals with a RT less than 40 seconds [1, 4] | % of animals with a RT less than 40 seconds [1, 5] | % of animals with a RT less than 40 seconds [1, 6] | % of animals with a RT less than 40 seconds [1, 7] | % of animals with a RT less than 40 seconds [1, 8] | % of animals with a RT less than 40 seconds [1, 9] | % of animals with a RT less than 40 seconds [1, 10] | % of animals with a RT less than 40 seconds [1, 11] | % of animals with a RT less than 40 seconds [1, 12] | % of animals with a RT less than 40 seconds [1, 13] | % of animals with a RT less than 40 seconds [1, 14] | other results
CCCCCCC(=O)OCCN1C2CCC1CC(=C1c3ccccc3CSc3ccccc31)C2 (racemic) [Example 3, dl N-(β-heptanoyloxyethyl)-11-(3'-nortropylidene)-6,11-dihydrodibenzo(b,e)thiepine] | 50% | 60% | 50% | 50% | 40% | 40% | 70% | 40% | 50% | 30% | 40% | 20% | % inhibition of reactions: L (lacrymation) ([2]; after 4 h): 90%; % inhibition of reactions: S (salivation) ([2]; after 4 h): 30%; % inhibition of reactions: T (trembling) ([2]; after 4 h): 40%; % inhibition of reactions: L (lacrymation) ([2]; after 1 d): 30%; % inhibition of reactions: S (salivation) ([2]; after 1 d): 20%; % inhibition of reactions: T (trembling) ([2]; after 1 d): 0%; % inhibition of reactions: L (lacrymation) ([2]; after 2 d): 100%; % inhibition of reactions: S (salivation) ([2]; after 2 d): 10%; % inhibition of reactions: T (trembling) ([2]; after 2 d): 100%; % inhibition of reactions: L (lacrymation) ([2]; after 3 d): 20%; % inhibition of reactions: S (salivation) ([2]; after 3 d): 0%; % inhibition of reactions: L (lacrymation) ([2]; after 4 d): 0%; % inhibition of reactions: S (salivation) ([2]; after 4 d): 10%; % inhibition of reactions: T (trembling) ([2]; after 4 d): 20%; antitremorine activity (in words) ([2]; s.c. sesame oil, mice, Table I): prolonged antitremorine activity
CCCCCCCCCC(=O)OCCN1C2CCC1CC(=C1c3ccccc3CSc3ccccc31)C2 (racemic) [Example 4, dl N-(β-decanoyloxyethyl)-11-(3'-nortropylidene)-6,11-dihydrodibenzo(b,e)thiepine] | 100% | 30% | 30% | 10% | 0% | 20% | 100% | 60% | 30% | 30% | 0% | 30% | 
O=C1CCCN1CC#CCN1CCCC1 [Oxotremorine, oxotremorine, reference compound] |  |  |  |  |  |  |  |  |  |  |  |  | % of animals with a RT less than 40 seconds ([1]; oxotremorine controls, 0.5 mg/kg i.p., 4 h): 10%; % of animals with a RT less than 40 seconds ([1]; oxotremorine controls, 0.5 mg/kg i.p., 1 d): 10%; % of animals with a RT less than 40 seconds ([1]; oxotremorine controls, 0.5 mg/kg i.p., 2 d): 10%; % of animals with a RT less than 40 seconds ([1]; oxotremorine controls, 0.5 mg/kg i.p., 3 d): 10%; % of animals with a RT less than 40 seconds ([1]; oxotremorine controls, 0.5 mg/kg i.p., 4 d): 0%; % of animals with a RT less than 40 seconds ([1]; oxotremorine controls, 0.5 mg/kg i.p., 7 d): 0%
CCCCCCCCCCCCCCCC(=O)OCCN1C2CCC1CC(=C1c3ccccc3CSc3ccccc31)C2 (racemic) [Example 5, dl N-(β-palmitoyloxyethyl)-11-(3'-nortropylidene)-6,11-dihydrodibenzo(b,e)thiepine] | 20% | 30% | 40% | 10% | 30% | 30% | 70% | 60% | 30% | 20% | 20% | 30% | 

— patent US3975529A, “Diebenzo(B,E)thiepines” (Roussel-UCLAF, priority 1974, dated 1976)
